This note sets out measurements from article PMC5992652, “Insight into the functional roles of Glu175 in the hyperthermostable xylanase XYL10C-ΔN through structural analysis and site-saturation mutagenesis” (Biotechnology for Biofuels, 2018).

The target of one assay is T1, XYL10C-ΔN (Bispora sp. MEY-1, UniProt D0QF43).
T1 construct: 18-residue signal peptide and the next 66 N-terminal residues removed; pPIC9, Pichia pastoris GS115; deglycosylated with Endo Hf; two monomers in asymmetric unit
The experiment in a line: HPAEC of hydrolysis products. The assay is classed as biochemical. Particulars: pH 4.5, 70 °C, 16 h, Na2HPO4-citric acid; products mainly xylose and xylobiose.

A further assay has as its target T2, XYL10C (Bispora sp. MEY-1, UniProt D0QF43).
T2 construct: 18-residue signal peptide
T2 sequence (D0QF43 19-424): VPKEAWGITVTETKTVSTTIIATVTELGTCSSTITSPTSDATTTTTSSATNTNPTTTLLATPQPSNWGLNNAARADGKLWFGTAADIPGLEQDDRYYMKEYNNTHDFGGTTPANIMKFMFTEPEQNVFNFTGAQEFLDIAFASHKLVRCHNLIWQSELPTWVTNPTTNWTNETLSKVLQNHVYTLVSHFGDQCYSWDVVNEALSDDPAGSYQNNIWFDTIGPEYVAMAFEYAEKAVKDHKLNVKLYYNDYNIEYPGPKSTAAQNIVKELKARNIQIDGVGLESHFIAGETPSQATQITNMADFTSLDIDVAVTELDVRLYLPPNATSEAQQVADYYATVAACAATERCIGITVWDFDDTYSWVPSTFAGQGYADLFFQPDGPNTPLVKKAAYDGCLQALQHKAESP
The experiment in a line: HPAEC of hydrolysis products. The assay is classed as biochemical. Particulars: pH 4.5, 70 °C, 16 h, Na2HPO4-citric acid; products mainly xylose and xylobiose.

Each structure is given as a SMILES string.

With `OC1OC[C@@H](O[C@@H]2OC[C@@H](O[C@@H]3OC[C@@H](O[C@@H]4OC[C@@H](O[C@@H]5OC[C@@H](O[C@@H]6OC[C@@H](O)[C@H](O)[C@H]6O)[C@H](O)[C@H]5O)[C@H](O)[C@H]4O)[C@H](O)[C@H]3O)[C@H](O)[C@H]2O)[C@H](O)[C@H]1O` (stereo partly shown) [X6, xylohexaose], the “HPAEC of hydrolysis products” value on XYL10C-ΔN is recorded as “employed an endo-mode of action to cleave xylotriose, xylotetraose, xylopentaose, xylohexaose”; at XYL10C, “employed an endo-mode of action to cleave xylotriose, xylotetraose, xylopentaose, xylohexaose”.

As for `OC1OC[C@@H](O[C@@H]2OC[C@@H](O[C@@H]3OC[C@@H](O)[C@H](O)[C@H]3O)[C@H](O)[C@H]2O)[C@H](O)[C@H]1O` (stereo partly shown) [X3, xylotriose], the “HPAEC of hydrolysis products” value is “employed an endo-mode of action to cleave xylotriose, xylotetraose, xylopentaose, xylohexaose” on XYL10C-ΔN and “employed an endo-mode of action to cleave xylotriose, xylotetraose, xylopentaose, xylohexaose” on XYL10C.
